The text below walks through data of patent US9561228B2 (Celgene Avilomics Research, Inc., priority 2013, dated 2017).

The target of one assay is T1, Erk1 (Homo sapiens, UniProt P27361).
T1 construct: purchased Millipore 14-439
The assay is described as follows: Protein Mass Modification Assay (intact protein MALDI, 60 min, 10-fold excess of compound). The class given is binding. In short, it runs like this: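 Percent covalent modification comes from the intact-protein MALDI centroid mass shift, treated versus control, divided by compound MW. Before analysis, human Erk1 was exposed to compound at 10-fold excess over protein for 60 min at room temperature.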

In a further assay the target is T2, MEK1 activated ERK1 (Homo sapiens, UniProt P27361).
T2 construct: purchased Millipore (Billerica, Mass.) 14-439-K
The assay is described as follows: Omnia continuous-read kinase assay for potency against MEK1 activated ERK1. The class given is biochemical. In short, it runs like this: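 Apparent IC50 came from initial reaction slopes (RFU vs time) plotted against log inhibitor with a variable-slope fit. Reactions were started with ERK1 (4 nM final) added to 50 μM ATP, roughly at its appKM, and 10 μM Sox-conjugated ST17 peptide in 20 mM Tris pH 7.5, 5 mM MgCl2. Fluorescence was monitored every 71 seconds.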

Assay [1] deals with ERK1/2 phosphorylation of p90RSK in HCT116 cells. The assay is described as follows: Detection of total and phospho-RSK by MSD ELISA (HCT116). The assay is classed as cell-based. Conditions: Homo sapiens, HCT-116, read-out: ERK1/ERK2 PRSK HCT116 EC50. In short, it runs like this:
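ERK1/2 activity read in cells as p90RSK phosphorylation: lysates from HCT116 cells given compound for 2 h at 37° C were captured on MSD plates. Detection used a pSer380 RSK or a total RSK antibody with SulfoTag secondaries.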

Like-named read-outs stand apart in the source and are kept apart here. Where only a bound is given, the exact number is not on record here.

T2 sequence (P27361 whole entry): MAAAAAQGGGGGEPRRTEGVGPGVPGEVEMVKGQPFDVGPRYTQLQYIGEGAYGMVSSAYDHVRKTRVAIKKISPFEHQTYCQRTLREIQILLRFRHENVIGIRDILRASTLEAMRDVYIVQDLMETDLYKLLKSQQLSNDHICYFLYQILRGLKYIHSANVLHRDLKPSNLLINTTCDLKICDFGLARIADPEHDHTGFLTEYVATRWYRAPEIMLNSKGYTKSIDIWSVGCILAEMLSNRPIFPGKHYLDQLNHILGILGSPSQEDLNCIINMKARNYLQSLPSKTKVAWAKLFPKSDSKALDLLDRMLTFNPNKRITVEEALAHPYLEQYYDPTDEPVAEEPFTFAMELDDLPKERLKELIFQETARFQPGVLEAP
T1 sequence (P27361 whole entry): as above

On to `C=CC(=O)Nc1cc(OCCN)ccc1Nc1nc(Nc2cc(OC)ncc2C)ncc1C(F)(F)F` [Compound I-396, N-(5-(2-aminoethoxy)-2-((2-((2-methoxy-5-methylpyridin-4-yl)amino)-5-(trifluoromethyl)pyrimidin-4-yl)amino)phenyl)acrylamide], for which, on Erk1, the “ERK1 Mass Mod (%)” value is “E (a mass modification of ≧70%)”. Further, the IC50 on MEK1 activated ERK1 (ATP at KM, WT) was below 0.1 µM. For the same compound, the EC50 in assay [1] is 0.101 to 0.5 µM.

Turning to `C#CC(=O)Nc1cc(C)ccc1Nc1nc(Nc2cc(OC)ncc2C)ncc1C(F)(F)F` [Compound I-345, N-(2-((2-((2-methoxy-5-methylpyridin-4-yl)amino)-5-(trifluoromethyl)pyrimidin-4-yl)amino)-5-methylphenyl)propiolamide], on Erk1, the “ERK1 Mass Mod (%)” value was “E (a mass modification of ≧70%)”. The IC50 at MEK1 activated ERK1 (ATP at KM, WT) was 0.101 to 0.5 µM. In assay [1], the EC50 is above 1 µM.

Take `C=CC(=O)Nc1cc(CN2CCN(C(C)=O)CC2)ccc1Nc1nc(Nc2cc(OC)ncc2C)ncc1C(F)(F)F` [Compound I-381, N-(5-((4-acetylpiperazin-1-yl)methyl)-2-((2-((2-methoxy-5-methylpyridin-4-yl)amino)-5-(trifluoromethyl)pyrimidin-4-yl)amino)phenyl)acrylamide]: the “ERK1 Mass Mod (%)” value at Erk1 is recorded as “E (a mass modification of ≧70%)”. In addition, the IC50 at MEK1 activated ERK1 (ATP at KM, WT) is below 0.1 µM. Further, in assay [1], the EC50 was below 0.1 µM.

Turning to `C=CC(=O)Nc1cc(C)ccc1Nc1nc(Nc2nc(OC)ncc2OC)ncc1C(F)(F)F` [Compound I-349, N-(2-((2-((2,5-dimethoxypyrimidin-4-yl)amino)-5-(trifluoromethyl)pyrimidin-4-yl)amino)-5-methylphenyl)acrylamide], on Erk1, the “ERK1 Mass Mod (%)” value is given as “E (a mass modification of ≧70%)”. For the same compound, the IC50 at MEK1 activated ERK1 (ATP at KM, WT) fell in the range of 0.101 to 0.5 µM. Besides, in assay [1], the EC50 was in the range of 0.101 to 0.5 µM.

As to `C=CC(=O)Nc1cc(C)ccc1Nc1nc(Nc2cc(OC)nc(N3CCN(C(C)=O)CC3)c2)ncc1C(F)(F)F` [Compound I-93, N-(2-((2-((2-(4-Acetylpiperazin-1-yl)-6-methoxypyridin-4-yl)amino)-5-(trifluoromethyl)pyrimidin-4-yl)amino)-5-methylphenyl)acrylamide], the “ERK1 Mass Mod (%)” value at Erk1 is listed as “E (key: E: a mass modification of ≧70%; F: a mass modification of 31-69%; G: a mass modification ≦30%)”. Also, the IC50 on MEK1 activated ERK1 (MEK1 activated ERK1, ATP at KM, read-out: ERK1 Omnia WT ATP KM IC50) lay within 0.101 to 0.5 µM. Besides, in assay [1], the EC50 is below 0.1 µM.

Regarding `C=CC(=O)Nc1cc(C)ccc1Nc1nc(Nc2ccnc3ccccc23)ncc1C(F)(F)F` [Compound I-379, N-(5-methyl-2-((2-(quinolin-4-ylamino)-5-(trifluoromethyl)pyrimidin-4-yl)amino)phenyl)acrylamide], at Erk1, the “ERK1 Mass Mod (%)” value is listed as “E (a mass modification of ≧70%)”. At MEK1 activated ERK1 (ATP at KM, WT), the IC50 was 0.101 to 0.5 µM. For the same compound, the EC50 in assay [1] is 0.501 to 0.999 µM.

Consider `C=CC(=O)Nc1cc(C)ccc1Nc1nc(Nc2ncc(C(F)(F)F)c(OC)n2)ncc1C(F)(F)F` [Compound I-354, N-(2-((2-((4-methoxy-5-(trifluoromethyl)pyrimidin-2-yl)amino)-5-(trifluoromethyl)pyrimidin-4-yl)amino)-5-methylphenyl)acrylamide], for which the “ERK1 Mass Mod (%)” value on Erk1 was “E (a mass modification of ≧70%)”. Moreover, the half-maximal inhibitory concentration (IC50) on MEK1 activated ERK1 (ATP at KM, WT) was 0.101 to 0.5 µM. The EC50 in assay [1] was in the range of 0.101 to 0.5 µM.

Take `C=CC(=O)Nc1cc(C)ccc1Nc1nc(Nc2cc(OC)nnc2OC)ncc1C(F)(F)F` [Compound I-372, N-(2-((2-((3,6-dimethoxypyridazin-4-yl)amino)-5-(trifluoromethyl)pyrimidin-4-yl)amino)-5-methylphenyl)acrylamide]: the “ERK1 Mass Mod (%)” value on Erk1 is reported as “F (a mass modification of 31-69%)”. In addition, at MEK1 activated ERK1 (ATP at KM, WT), the IC50 lay in the range of 0.501 to 0.999 µM. The EC50 in assay [1] fell in the range of 0.101 to 0.5 µM.

Turning to `C=CC(=O)Nc1c(Nc2nc(Nc3cc(OC)ncc3C)ncc2C(F)(F)F)ccc(C)c1F` [Compound I-367, N-(2-fluoro-6-((2-((2-methoxy-5-methylpyridin-4-yl)amino)-5-(trifluoromethyl)pyrimidin-4-yl)amino)-3-methylphenyl)acrylamide], the “ERK1 Mass Mod (%)” value at Erk1 is reported as “E (a mass modification of ≧70%)”. For the same compound, the IC50 on MEK1 activated ERK1 (ATP at KM, WT) is 0.101 to 0.5 µM. Further, the EC50 in assay [1] was 0.501 to 0.999 µM.
